Test results from ChEMBL document CHEMBL1909046, “DrugMatrix in vitro pharmacology data”.

Legend:
Substance-P receptor = Substance-P receptor (Homo sapiens, UniProt P25103); type: cell membranes, Membrane; conditions: cho; further: in other assays of this panel Not Active means under 50% inhibition at 10 µM
[1] = biological target: T1, C-X-C chemokine receptor type 2 (Homo sapiens, UniProt P25025); type: cell membranes, Membrane; conditions: cho-k1; further: in other assays of this panel Not Active means under 50% inhibition at 10 µM
T1 sequence (P25025 whole entry): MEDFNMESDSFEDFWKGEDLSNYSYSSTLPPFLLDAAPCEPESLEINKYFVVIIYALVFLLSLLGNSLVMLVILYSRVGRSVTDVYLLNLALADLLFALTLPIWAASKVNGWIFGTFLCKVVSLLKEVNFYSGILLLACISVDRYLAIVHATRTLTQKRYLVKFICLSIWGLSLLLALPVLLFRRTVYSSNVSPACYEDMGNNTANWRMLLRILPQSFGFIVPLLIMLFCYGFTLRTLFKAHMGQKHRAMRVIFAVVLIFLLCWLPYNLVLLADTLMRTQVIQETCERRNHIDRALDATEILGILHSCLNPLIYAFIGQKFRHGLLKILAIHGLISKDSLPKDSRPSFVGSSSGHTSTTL

Glucocorticoid receptor = biological target: T2, Glucocorticoid receptor (Homo sapiens, UniProt P04150); conditions: hela s3; further: in other assays of this panel Not Active means under 50% inhibition at 10 µM
T2 sequence (P04150 whole entry): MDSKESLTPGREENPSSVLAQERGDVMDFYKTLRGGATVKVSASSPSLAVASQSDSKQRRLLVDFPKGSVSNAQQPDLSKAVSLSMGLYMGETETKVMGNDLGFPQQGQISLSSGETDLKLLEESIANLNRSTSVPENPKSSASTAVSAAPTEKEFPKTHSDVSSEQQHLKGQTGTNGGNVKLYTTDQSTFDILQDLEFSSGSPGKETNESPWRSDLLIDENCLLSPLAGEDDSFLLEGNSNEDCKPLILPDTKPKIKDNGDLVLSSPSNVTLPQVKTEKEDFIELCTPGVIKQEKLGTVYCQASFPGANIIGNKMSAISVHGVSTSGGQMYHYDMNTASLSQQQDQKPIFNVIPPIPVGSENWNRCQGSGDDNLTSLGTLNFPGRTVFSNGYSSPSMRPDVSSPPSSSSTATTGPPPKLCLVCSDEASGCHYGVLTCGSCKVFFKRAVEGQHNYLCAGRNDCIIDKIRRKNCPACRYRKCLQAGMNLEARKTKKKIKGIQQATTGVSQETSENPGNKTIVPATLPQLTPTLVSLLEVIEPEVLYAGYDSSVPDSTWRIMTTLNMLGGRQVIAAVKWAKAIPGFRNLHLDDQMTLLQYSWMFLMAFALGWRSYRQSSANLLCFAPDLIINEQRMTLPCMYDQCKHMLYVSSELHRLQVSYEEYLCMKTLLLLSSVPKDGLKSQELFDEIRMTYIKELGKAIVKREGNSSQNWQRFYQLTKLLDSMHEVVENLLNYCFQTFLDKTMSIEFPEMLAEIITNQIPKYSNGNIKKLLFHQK

[2] = DRUGMATRIX: Nicotinic Acetylcholine radioligand binding (ligand: [125I] Epibatidine); type: cell membranes, Membrane; conditions: imr-32; Not Active = under 50% inhibition at 10 µM
Calcitonin receptor = biological target: T3, Calcitonin receptor (Homo sapiens, UniProt P30988); type: cell membranes, Membrane; conditions: t47d; further: in other assays of this panel Not Active means under 50% inhibition at 10 µM
T3 sequence (P30988 whole entry): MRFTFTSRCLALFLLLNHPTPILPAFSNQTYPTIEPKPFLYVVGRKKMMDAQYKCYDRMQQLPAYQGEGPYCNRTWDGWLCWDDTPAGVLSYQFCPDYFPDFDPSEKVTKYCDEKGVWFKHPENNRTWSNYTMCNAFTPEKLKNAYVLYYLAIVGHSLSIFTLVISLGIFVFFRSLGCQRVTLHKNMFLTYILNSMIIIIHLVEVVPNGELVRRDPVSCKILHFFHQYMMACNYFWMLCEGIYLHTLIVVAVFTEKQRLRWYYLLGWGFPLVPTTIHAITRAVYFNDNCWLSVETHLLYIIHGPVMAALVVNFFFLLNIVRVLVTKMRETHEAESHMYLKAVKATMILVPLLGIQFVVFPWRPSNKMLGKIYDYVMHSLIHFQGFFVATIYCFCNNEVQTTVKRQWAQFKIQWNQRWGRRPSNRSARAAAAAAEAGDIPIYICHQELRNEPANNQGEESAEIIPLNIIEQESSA

[3] = biological target: T4, Amine oxidase [flavin-containing] A (Homo sapiens, UniProt P21397); test: DRUGMATRIX: Monoamine Oxidase MAO-A enzyme inhibition (substrate: Kynuramine); design: species or system BTI-TN-5B1-4; conditions: bti-tn-5b1-4; Not Active = under 50% inhibition at 10 µM
T4 sequence (P21397 whole entry): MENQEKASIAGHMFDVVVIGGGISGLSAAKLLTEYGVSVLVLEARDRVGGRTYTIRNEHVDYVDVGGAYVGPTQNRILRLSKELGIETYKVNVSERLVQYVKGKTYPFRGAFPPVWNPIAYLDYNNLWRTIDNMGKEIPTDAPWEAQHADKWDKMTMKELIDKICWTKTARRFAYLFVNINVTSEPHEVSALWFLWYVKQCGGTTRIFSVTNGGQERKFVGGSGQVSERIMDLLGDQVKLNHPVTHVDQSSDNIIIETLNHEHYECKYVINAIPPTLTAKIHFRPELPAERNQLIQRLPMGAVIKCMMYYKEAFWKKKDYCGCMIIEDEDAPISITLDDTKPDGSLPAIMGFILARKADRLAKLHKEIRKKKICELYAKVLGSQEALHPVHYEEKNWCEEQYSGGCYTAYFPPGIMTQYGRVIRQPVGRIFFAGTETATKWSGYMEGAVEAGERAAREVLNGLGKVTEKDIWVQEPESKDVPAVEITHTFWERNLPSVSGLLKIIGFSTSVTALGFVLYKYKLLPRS

[4] = biological target: T5, Type-2 angiotensin II receptor (Homo sapiens, UniProt P50052); type: cell-based; conditions: cho-k1; further: in other assays of this panel Not Active means under 50% inhibition at 10 µM
T5 sequence (P50052 whole entry): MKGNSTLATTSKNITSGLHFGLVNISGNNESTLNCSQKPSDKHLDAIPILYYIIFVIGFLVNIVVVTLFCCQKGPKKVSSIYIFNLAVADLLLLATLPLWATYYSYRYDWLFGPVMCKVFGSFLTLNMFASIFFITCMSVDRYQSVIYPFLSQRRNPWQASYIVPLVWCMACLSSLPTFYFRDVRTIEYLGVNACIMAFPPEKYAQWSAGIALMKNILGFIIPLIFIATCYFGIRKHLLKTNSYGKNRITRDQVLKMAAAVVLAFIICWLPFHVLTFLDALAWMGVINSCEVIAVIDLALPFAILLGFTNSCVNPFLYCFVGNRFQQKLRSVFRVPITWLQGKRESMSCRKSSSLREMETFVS

[5] = DRUGMATRIX: Phorbol Ester radioligand binding (ligand: [3H] PDBu); type: cell membranes, Mus musculus, ICR, Brain, Membrane; conditions: Not Active = under 50% inhibition at 10 µM
[6] = DRUGMATRIX: Atrial Natriuretic Factor (ANF) radioligand binding (ligand: [125I] ANF (rat)); type: cell membranes, Cavia porcellus, Dunkin-Hartley, Adrenal gland, Membrane; conditions: Not Active = under 50% inhibition at 10 µM

Sequence of Substance-P receptor (P25103 whole entry): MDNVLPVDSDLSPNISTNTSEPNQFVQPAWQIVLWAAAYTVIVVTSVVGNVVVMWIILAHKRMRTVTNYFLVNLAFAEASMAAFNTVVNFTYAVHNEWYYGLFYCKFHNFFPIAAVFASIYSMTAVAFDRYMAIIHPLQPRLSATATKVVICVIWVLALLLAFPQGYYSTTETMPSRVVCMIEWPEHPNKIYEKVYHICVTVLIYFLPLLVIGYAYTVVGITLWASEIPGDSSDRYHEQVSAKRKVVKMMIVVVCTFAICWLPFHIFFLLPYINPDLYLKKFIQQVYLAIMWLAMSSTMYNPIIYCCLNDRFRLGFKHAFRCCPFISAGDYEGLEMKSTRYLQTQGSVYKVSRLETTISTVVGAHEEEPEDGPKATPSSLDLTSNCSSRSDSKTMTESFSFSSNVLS

CC[C@H](C)C(=O)O[C@H]1C[C@H](O)C=C2C=C[C@H](C)[C@H](CC[C@@H](O)C[C@@H](O)CC(=O)O)[C@H]21 [PRAVASTATIN]
Not Active: IC50 (Substance-P receptor) | IC50 [1] | IC50 (Glucocorticoid receptor) | IC50 [2] | Ki [2] | IC50 (Calcitonin receptor) | IC50 [3] | IC50 [4] | IC50 [5] | Ki [5] | IC50 [6] | Ki [6]

OCCN1CCN(CCCN2c3ccccc3Sc3ccc(Cl)cc32)CC1 [PERPHENAZINE]
Not Active: IC50 (Substance-P receptor) | IC50 [1] | IC50 (Glucocorticoid receptor) | IC50 [2] | Ki [2] | IC50 (Calcitonin receptor) | IC50 [3] | IC50 [4] | IC50 [5] | Ki [5] | IC50 [6] | Ki [6]

CC(C)(C)c1ccc(S(=O)(=O)/C=C/C#N)cc1 [BAY-11-7085]
Not Active: IC50 (Substance-P receptor) | IC50 [1] | IC50 (Glucocorticoid receptor) | IC50 [2] | Ki [2] | IC50 (Calcitonin receptor) | IC50 [3] | IC50 [4] | IC50 [5] | Ki [5] | IC50 [6] | Ki [6]

CCC(=O)O[C@H]1[C@H](O[C@@H]2[C@@H](C)[C@H](O[C@H]3C[C@@](C)(OC)[C@@H](O)[C@H](C)O3)[C@@H](C)C(=O)O[C@H](CC)[C@@](C)(O)[C@H](O)[C@@H](C)C(=O)[C@H](C)C[C@@]2(C)O)O[C@H](C)C[C@@H]1N(C)C [ERYTHROMYCIN PROPIONATE]
Not Active: IC50 (Substance-P receptor) | IC50 [1] | IC50 (Glucocorticoid receptor) | IC50 [2] | Ki [2] | IC50 (Calcitonin receptor) | IC50 [3] | IC50 [4] | IC50 [5] | Ki [5] | IC50 [6] | Ki [6]

Nc1nc(Cl)nc2c1ncn2[C@H]1C[C@H](O)[C@@H](CO)O1 [CLADRIBINE]
Not Active: IC50 (Substance-P receptor) | IC50 [1] | IC50 (Glucocorticoid receptor) | IC50 [2] | Ki [2] | IC50 (Calcitonin receptor) | IC50 [3] | IC50 [4] | IC50 [5] | Ki [5] | IC50 [6] | Ki [6]

CC(C)(Sc1cc(C(C)(C)C)c(O)c(C(C)(C)C)c1)Sc1cc(C(C)(C)C)c(O)c(C(C)(C)C)c1 [PROBUCOL]
Not Active: IC50 (Substance-P receptor) | IC50 [1] | IC50 (Glucocorticoid receptor) | IC50 [2] | Ki [2] | IC50 (Calcitonin receptor) | IC50 [3] | IC50 [4] | IC50 [5] | Ki [5] | IC50 [6] | Ki [6]

CN1C[C@H](C(=O)N[C@]2(C)O[C@@]3(O)[C@@H]4CCCN4C(=O)[C@H](Cc4ccccc4)N3C2=O)C[C@@H]2c3cccc4[nH]cc(c34)C[C@H]21 [DIHYDROERGOTAMINE]
Not Active: IC50 (Substance-P receptor) | IC50 [1] | IC50 (Glucocorticoid receptor) | IC50 [2] | Ki [2] | IC50 (Calcitonin receptor) | IC50 [3] | IC50 [4] | IC50 [5] | Ki [5] | IC50 [6] | Ki [6]

CC(CCc1ccc(O)cc1)NCCc1ccc(O)c(O)c1 (centres undefined) [DOBUTAMINE]
Not Active: IC50 (Substance-P receptor) | IC50 [1] | IC50 (Glucocorticoid receptor) | IC50 [2] | Ki [2] | IC50 (Calcitonin receptor) | IC50 [3] | IC50 [4] | IC50 [5] | Ki [5] | IC50 [6] | Ki [6]

POLYVINYL ALCOHOL
Not Active: IC50 (Substance-P receptor) | Ki (Substance-P receptor) | IC50 [1] | Ki [1] | IC50 (Glucocorticoid receptor) | Ki (Glucocorticoid receptor) | IC50 [2] | Ki [2] | IC50 (Calcitonin receptor) | Ki (Calcitonin receptor) | IC50 [3] | Ki [3] | IC50 [4] | Ki [4] | IC50 [5] | Ki [5] | IC50 [6] | Ki [6]

CC(=O)OCC(CCn1cnc2cnc(N)nc21)COC(C)=O [FAMCICLOVIR]
Not Active: IC50 (Substance-P receptor) | IC50 [1] | IC50 (Glucocorticoid receptor) | IC50 [2] | Ki [2] | IC50 (Calcitonin receptor) | IC50 [3] | IC50 [4] | IC50 [5] | Ki [5] | IC50 [6] | Ki [6]

C/C=C\c1ccc(O)c(OC)c1 [ISOEUGENOL]
Not Active: IC50 (Substance-P receptor) | IC50 [1] | IC50 (Glucocorticoid receptor) | IC50 [2] | Ki [2] | IC50 (Calcitonin receptor) | IC50 [3] | IC50 [4] | IC50 [5] | Ki [5] | IC50 [6] | Ki [6]

O=C(c1ccccc1Cl)N1CCC(Cc2ccccc2)CC1
Not Active: IC50 (Substance-P receptor) | IC50 [1] | IC50 (Glucocorticoid receptor) | IC50 [2] | Ki [2] | IC50 (Calcitonin receptor) | IC50 [3] | IC50 [4] | IC50 [5] | Ki [5] | IC50 [6] | Ki [6]

Cc1c(F)c(N2CCNC(C)C2)cc2c1c(=O)c(C(=O)O)cn2C1CC1 (centres undefined) [GREPAFLOXACIN]
Not Active: IC50 (Substance-P receptor) | IC50 [1] | IC50 (Glucocorticoid receptor) | IC50 [2] | Ki [2] | IC50 (Calcitonin receptor) | IC50 [3] | IC50 [4] | IC50 [5] | Ki [5] | IC50 [6] | Ki [6]

CC(C(=O)O)c1ccc(-c2ccccc2)c(F)c1 (centres undefined) [FLURBIPROFEN]
Not Active: IC50 (Substance-P receptor) | IC50 [1] | IC50 (Glucocorticoid receptor) | IC50 [2] | Ki [2] | IC50 (Calcitonin receptor) | IC50 [3] | IC50 [4] | IC50 [5] | Ki [5] | IC50 [6] | Ki [6]
